According to ChEMBL document CHEMBL2203235, “Optimization of a natural product-based class of γ-secretase modulators” (J Med Chem, 2012):

What was measured:
[1] = Modulation of gamma secretase in CHO-2B7 cells assessed as reduction in amyloid beta 40 level after 5 hrs by MSD ELISA; assay type: cell-based; conditions: Cricetulus griseus, CHO-2B7, 5 h
[2] = Modulation of gamma secretase in CHO-2B7 cells assessed as reduction in amyloid beta 42 level after 5 hrs by MSD ELISA; assay type: cell-based; conditions: Cricetulus griseus, CHO-2B7, 5 h
Liver microsomes = experiment: Metabolic stability in human liver microsomes at 1 uM after 60 mins by LC/MS/MS analysis; conditions: 1 h

| SMILES | IC50 [2] [µM] | IC50 [1] [µM] | Stability (Liver microsomes) |
| --- | --- | --- | --- |
| CCO[C@@H]([C@H]1C[C@@H](C)[C@H]2[C@H](O1)[C@H](O)[C@@]1(C)[C@@H]3CC[C@H]4C(C)(C)[C@@H](O[C@H]5CN([C@H]6CCOC6)CCO5)CC[C@@]45C[C@@]35CC[C@]21C)C(C)(C)O | 0.42 | 6.2 | Stable |
| CCO[C@@H]([C@H]1C[C@@H](C)[C@H]2[C@H](O1)[C@H](O)[C@@]1(C)[C@@H]3CC[C@H]4C(C)(C)[C@@H](OC(=O)N[C@@H]5CCNC5=O)CC[C@@]45C[C@@]35CC[C@]21C)C(C)(C)O | 0.14 | 2.5 | Stable |
| CC(=O)O[C@@H]([C@H]1C[C@@H](C)[C@H]2[C@H](O1)[C@H](O)[C@@]1(C)[C@@H]3CC[C@H]4C(C)(C)[C@@H](O)CC[C@@]45C[C@@]35CC[C@]21C)C(C)(C)O | 0.6 |  |  |
| CCO[C@@H]([C@H]1C[C@@H](C)[C@H]2[C@H](O1)[C@H](O)[C@@]1(C)[C@@H]3CC[C@H]4C(C)(C)[C@@H](O[C@H]5CN(CCN6CCOCC6)CCO5)CC[C@@]45C[C@@]35CC[C@]21C)C(C)(C)O | 0.43 | 1.3 | Stable |
| CCO[C@@H]([C@H]1C[C@@H](C)[C@H]2[C@H](O1)[C@H](O)[C@@]1(C)[C@@H]3CC[C@H]4C(C)(C)[C@@H](OC(=O)N5CC[C@H](C(=O)O)C5)CC[C@@]45C[C@@]35CC[C@]21C)C(C)(C)O | 0.4 | 17 | Stable |
| CCO[C@@H]([C@H]1C[C@@H](C)[C@H]2[C@H](O1)[C@H](O)[C@@]1(C)[C@@H]3CC[C@H]4C(C)(C)[C@@H](O[C@H]5CN(CCC(=O)O)CCO5)CC[C@@]45C[C@@]35CC[C@]21C)C(C)(C)O | 0.31 | 9.6 | Stable |
| CC(C)[C@@H](OC(=O)N1CCC1)[C@H]1C[C@@H](C)[C@H]2[C@H](O1)[C@H](O)[C@@]1(C)[C@@H]3CC[C@H]4C(C)(C)[C@@H](OC(=O)N5CC(NCC(F)(F)F)C5)CC[C@@]45C[C@@]35CC[C@]21C | 0.75 | 11 | Stable |
| CCO[C@@H]([C@H]1C[C@@H](C)[C@H]2[C@H](O1)[C@H](O)[C@@]1(C)[C@@H]3CC[C@H]4C(C)(C)[C@@H](O[C@H]5CN(CCF)CCO5)CC[C@@]45C[C@@]35CC[C@]21C)C(C)(C)O | 0.24 | 4.7 | Stable |
| CCO[C@@H]([C@H]1C[C@@H](C)[C@H]2[C@H](O1)[C@H](O)[C@@]1(C)[C@@H]3CC[C@H]4C(C)(C)[C@@H](O[C@H]5CN(C(=O)CC6CNC6)CCO5)CC[C@@]45C[C@@]35CC[C@]21C)C(C)(C)O | 0.12 | 2.5 | Stable |
| CCO[C@@H]([C@H]1C[C@@H](C)[C@H]2[C@H](O1)[C@H](O)[C@@]1(C)[C@@H]3CC[C@H]4C(C)(C)[C@@H](O[C@H]5CN([C@@H]6CCOC6)CCO5)CC[C@@]45C[C@@]35CC[C@]21C)C(C)(C)O | 0.18 | 3 | Stable |
| CC(=O)N1CCN(C(=O)O[C@H]2CC[C@]34C[C@]35CC[C@]3(C)[C@@H]6[C@H](O[C@@H]([C@H](OC(=O)N7CCC7)C(C)C)C[C@H]6C)[C@H](O)[C@@]3(C)[C@@H]5CC[C@H]4C2(C)C)CC1 | 0.19 | 5.1 | Stable |
| CCO[C@@H]([C@H]1C[C@@H](C)[C@H]2[C@H](O1)[C@H](O)[C@@]1(C)[C@@H]3CC[C@H]4C(C)(C)[C@@H](OC(=O)NC5CN(C)C5)CC[C@@]45C[C@@]35CC[C@]21C)C(C)(C)O | 0.065 | 0.98 | Stable |
| CC(C)C(=O)N1CCO[C@@H](O[C@H]2CC[C@]34C[C@]35CC[C@]3(C)[C@@H]6[C@H](O[C@@H]([C@H](OC(=O)N7CCC7)C(C)C)C[C@H]6C)[C@H](O)[C@@]3(C)[C@@H]5CC[C@H]4C2(C)C)C1 | 0.4 | 11 | Stable |
| CC(C)CC(=O)N1CCO[C@@H](O[C@H]2CC[C@]34C[C@]35CC[C@]3(C)[C@@H]6[C@H](O[C@@H]([C@H](OC(=O)N7CCC7)C(C)C)C[C@H]6C)[C@H](O)[C@@]3(C)[C@@H]5CC[C@H]4C2(C)C)C1 | 1.3 | 11 | Stable |
| CCO[C@@H]([C@H]1C[C@@H](C)[C@H]2[C@H](O1)[C@H](O)[C@@]1(C)[C@@H]3CC[C@H]4C(C)(C)[C@@H](O[C@H]5CN(CCCC(=O)O)CCO5)CC[C@@]45C[C@@]35CC[C@]21C)C(C)(C)O | 0.63 | 6.5 | Stable |
| CCO[C@@H]([C@H]1C[C@@H](C)[C@H]2[C@H](O1)[C@H](O)[C@@]1(C)[C@@H]3CC[C@H]4C(C)(C)[C@@H](OC(=O)N[C@H]5CCNC5=O)CC[C@@]45C[C@@]35CC[C@]21C)C(C)(C)O | 0.19 | 2.9 | Stable |

Second part, led by results:

| IC50 [2] [µM] | SMILES | IC50 [1] [µM] | Stability (Liver microsomes) |
| --- | --- | --- | --- |
| 0.49 | CC(C)[C@@H](OC(=O)N1CCC1)[C@H]1C[C@@H](C)[C@H]2[C@H](O1)[C@H](O)[C@@]1(C)[C@@H]3CC[C@H]4C(C)(C)[C@@H](O[C@H]5CN([C@@H]6CCNC6=O)CCO5)CC[C@@]45C[C@@]35CC[C@]21C | 15 | Stable |
| 0.11 | CCO[C@@H]([C@H]1C[C@@H](C)[C@H]2[C@H](O1)[C@H](O)[C@@]1(C)[C@@H]3CC[C@H]4C(C)(C)[C@@H](O[C@H]5CN(CCN6CCC6)CCO5)CC[C@@]45C[C@@]35CC[C@]21C)C(C)(C)O | 2.9 | Stable |
| 0.53 | COCCN1CCO[C@@H](O[C@H]2CC[C@]34C[C@]35CC[C@]3(C)[C@@H]6[C@H](O[C@@H]([C@H](OC(=O)N7CCC7)C(C)C)C[C@H]6C)[C@H](O)[C@@]3(C)[C@@H]5CC[C@H]4C2(C)C)C1 | 5.2 | Stable |
| 0.38 | CC(C)[C@@H](OC(=O)N1CCC1)[C@H]1C[C@@H](C)[C@H]2[C@H](O1)[C@H](O)[C@@]1(C)[C@@H]3CC[C@H]4C(C)(C)[C@@H](OC(=O)N[C@@H]5CCCNC5=O)CC[C@@]45C[C@@]35CC[C@]21C | 6.6 | Stable |
| 0.15 | CCO[C@@H]([C@H]1C[C@@H](C)[C@H]2[C@H](O1)[C@H](O)[C@@]1(C)[C@@H]3CC[C@H]4C(C)(C)[C@@H](O[C@H]5CN(CCN6CCOC6=O)CCO5)CC[C@@]45C[C@@]35CC[C@]21C)C(C)(C)O | 1.9 | Stable |
| 0.18 | CC(C)[C@@H](OC(=O)N1CCC1)[C@H]1C[C@@H](C)[C@H]2[C@H](O1)[C@H](O)[C@@]1(C)[C@@H]3CC[C@H]4C(C)(C)[C@@H](OC(=O)N[C@@H]5CCNC5=O)CC[C@@]45C[C@@]35CC[C@]21C | 5.9 | Stable |
| 0.4 | CCO[C@@H]([C@H]1C[C@@H](C)[C@H]2[C@H](O1)[C@H](O)[C@@]1(C)[C@@H]3CC[C@H]4C(C)(C)[C@@H](O[C@H]5CN(C6(C)COC6)CCO5)CC[C@@]45C[C@@]35CC[C@]21C)C(C)(C)O | 5.8 | Stable |
| 0.77 | CC(C)[C@@H](OC(=O)N1CCC1)[C@H]1C[C@@H](C)[C@H]2[C@H](O1)[C@H](O)[C@@]1(C)[C@@H]3CC[C@H]4C(C)(C)[C@@H](O[C@H]5CN(C)CCO5)CC[C@@]45C[C@@]35CC[C@]21C | 8.4 | Stable |
| 0.28 | CC(C)[C@@H](OC(=O)N1CCC1)[C@H]1C[C@@H](C)[C@H]2[C@H](O1)[C@H](O)[C@@]1(C)[C@@H]3CC[C@H]4C(C)(C)[C@@H](O[C@H]5CN(C(=O)CCC(=O)O)CCO5)CC[C@@]45C[C@@]35CC[C@]21C | 7.2 | Stable |
| 0.4 | CC(C)[C@@H](OC(=O)N1CCC1)[C@H]1C[C@@H](C)[C@H]2[C@H](O1)[C@H](O)[C@@]1(C)[C@@H]3CC[C@H]4C(C)(C)[C@@H](OC(=O)N[C@H]5CCNC5=O)CC[C@@]45C[C@@]35CC[C@]21C | 1 | Stable |
| 0.35 | CC(C)[C@@H](OC(=O)N1CCC1)[C@H]1C[C@@H](C)[C@H]2[C@H](O1)[C@H](O)[C@@]1(C)[C@@H]3CC[C@H]4C(C)(C)[C@@H](OC(=O)N5CC(O)C5)CC[C@@]45C[C@@]35CC[C@]21C | 8 | Stable |
| 5.7 | C[C@@H]1C[C@H]([C@H](O)C(C)(C)O)O[C@H]2[C@H]1[C@@]1(C)CC[C@@]34C[C@@]35CC[C@H](OC(=O)NCCN(C)C)C(C)(C)[C@@H]5CC[C@H]4[C@]1(C)[C@H]2O |  |  |
| 9 | C[C@@H]1C[C@H]([C@H](O)C(C)(C)O)O[C@H]2[C@H]1[C@@]1(C)CC[C@@]34C[C@@]35CC[C@H](OC(=O)N3CCOCC3)C(C)(C)[C@@H]5CC[C@H]4[C@]1(C)[C@H]2O |  |  |
| 13 | C[C@@H]1C[C@H]([C@H](O)C(C)(C)O)O[C@H]2[C@H]1[C@@]1(C)CC[C@@]34C[C@@]35CC[C@H](OC(=O)N3CCC3)C(C)(C)[C@@H]5CC[C@H]4[C@]1(C)[C@H]2O |  |  |
| 0.58 | C[C@@H]1C[C@H]([C@H](O)C(C)(C)O)O[C@H]2[C@H]1[C@@]1(C)CC[C@@]34C[C@@]35CC[C@H](OC(=O)NC3CN6CCC3CC6)C(C)(C)[C@@H]5CC[C@H]4[C@]1(C)[C@H]2O (stereo partly drawn) |  |  |
